# From US5141934A, “Tetracyclic amines having pharmaceutical activity” (Warner-Lambert Company, priority 1990, dated 1992)
# Target: phencyclidine (PCP) receptors (noncompetitive NMDA antagonist binding site)
# Test: Tritiated 1[1-(2 thienyl)cyclohexyl]piperidine (TCP) binding, designated RBS1
# Settings: Table 1, read-out: RBSI IC50
# Protocol: The ability of the compounds of the instant invention to interact with phencyclidine (PCP) receptors which represents a noncompetitive NMDA antagonist binding site, is shown in Table 1. Tritiated 1[1-(2 thienyl)cyclohexyl]piperidine (TCP) binding, designated RBS1, was carried out essentially as described in J. Pharmacol. Exp. Ther., 238, 739 (1986).
row,Structure (SMILES),IC50 [µM]
1,"c1ccc2c(c1)C[C@H]1CN[C@@]23CCCC[C@@H]13 (relative stereo) [Example 14, (+/-)-(4aα,10α,10aα) 1,3,4,9,10,10a Hexahydro-2H-4a,10-(iminomethano)phenanthrene]",0.086
2,"CN1C[C@@H]2Cc3ccccc3[C@]13CCCC[C@@H]23 (relative stereo) [Example 16, (+/-)-(4aα,10α,10aα) 1,3,4,9,10,10a-Hexahydro-12-methyl-2H 4a,10-(iminomethano)phenanthrene]",0.137
3,"CCCN1C[C@@H]2Cc3ccccc3[C@]13CCCC[C@@H]23 (relative stereo) [Example 19, (+/-)-(4aα,10α,10aα)-1,3,4,9,10,10a-Hexahydro-12-propyl-2H-4a,10-(iminomethano)phenanthrene]",0.054
4,"c1ccc2c(c1)C[C@H]1CN(CC3CC3)[C@@]23CCCC[C@@H]13 (relative stereo) [Example 20, (+/-)-(4aα,10α,10aα)-12-(Cyclopropylmethyl)-1,3,4,9,10,10a-hexahydro-2H-4a,10-(iminomethano)-phenanthrene]",0.051
5,"c1ccc(C2(N3CCCCC3)CCCCC2)cc1 [PCP, phencyclidine]",0.04
6,"c1csc(C2(N3CCCCC3)CCCCC2)c1 [TCP, 1[1-(2 thienyl)cyclohexyl]piperidine]",0.009
